Here are results for six compounds from patent publication US8912198B2, “Compounds useful as inhibitors of ATR kinase” (Vertex Pharmaceuticals Incorporated, priority 2012, dated 2014).

A value given as a limit tells only on which side of the number the result lay.

For one assay, the target named is T1, intracellular ATR (Homo sapiens, UniProt Q13535).
T1 construct: endogenous in cells; host or cells: HT29
The assay is described as follows: Cellular ATR inhibition assay, H2AX phosphorylation in hydroxyurea treated HT29 cells. The assay is classed as cell-based. The note with it: 2 mM hydroxyurea, phosphorylated H2AX Ser139 positive nuclei. The method, then:
Compounds can be screened for their ability to inhibit intracellular ATR using an immunofluorescence microscopy assay to detect phosphorylation of the ATR substrate histone H2AX in hydroxyurea treated cells. HT29 cells are plated at 14,000 cells per well in 96-well black imaging plates (BD 353219) in McCoy's 5A media (Sigma M8403) supplemented with 10% foetal bovine serum (JRH Biosciences 12003), Penicillin/Streptomycin solution diluted 1:100 (Sigma P7539), and 2 mM L-glumtamine (Sigma G7513), and allowed to adhere overnight at 37° C. in 5% CO2. Compounds are then added to the cell media from a final concentration of 25 μM in 3-fold serial dilutions and the cells are incubated at 37° C. in 5% CO2. After 15 min, hydroxyurea (Sigma H8627) is added to a final concentration of 2 mM.
After 45 min of treatment with hydroxyurea, the cells are washed in PBS, fixed for 10 min in 4% formaldehyde diluted in PBS (Polysciences Inc 18814), washed in 0.2% Tween-20 in PBS (wash buffer), and permeabilised for 10min in 0.5% Triton X-100 in PBS, all at room temperature. The cells are then washed once in wash buffer and blocked for 30 min at room temperature in 10% goat serum (Sigma G9023) diluted in wash buffer (block buffer). To detect H2AX phosphorylation levels, the cells are then incubated for 1 h at room temperature in primary antibody (mouse monoclonal anti-phosphorylated histone H2AX Ser139 antibody; Upstate 05-636) diluted 1:250 in block buffer. The cells are then washed five times in wash buffer before incubation for lh at room temperature in the dark in a mixture of secondary antibody (goat anti-mouse Alexa Fluor 488 conjugated antibody; Invitrogen A11029) and Hoechst stain (Invitrogen H3570); diluted 1:500 and 1:5000, respectively, in wash buffer. The cells are then washed five times in wash buffer and finally 100 ul PBS is added to each well before imaging.
Cells are imaged for Alexa Fluor 488 and Hoechst intensity using the BD Pathway 855 Bioimager and Attovision software (BD Biosciences, Version 1.6/855) to quantify phosphorylated H2AX Ser139 and DNA staining, respectively. The percentage of phosphorylated H2AX-positive nuclei in a montage of 9 images at 20× magnification is then calculated for each well using BD Image Data Explorer software (BD Biosciences Version 2.2.15). Phosphorylated H2AX-positive nuclei are defined as Hoechst-positive regions of interest containing Alexa Fluor 488 intensity at 1.75-fold the average Alexa Fluor 488 intensity in cells not treated with hydroxyurea. The percentage of H2AX positive nuclei is finally plotted against concentration for each compound and IC50s for intracellular ATR inhibition are determined using Prism software (GraphPad Prism version 3.0cx for Macintosh, GraphPad Software, San Diego Calif., USA).

The subject of assay [1] is HCT116 colorectal cancer cells. Put plainly: Single agent HCT116 activity, 96 h cell viability (MTS) assay. The note with it: Homo sapiens, HCT-116; 96 h MTS cell viability, compound alone; read-out: Single agent HT116 IC50. The class given is cell-based. The method, then:
Compounds can be screened for single agent activity against HCT116 colorectal cancer cells using a 96 h cell viability (MTS) assay. HCT116 are plated at 470 cells per well in 96-well polystyrene plates (Costar 3596) in 150 μl of McCoy's 5A media (Sigma M8403) supplemented with 10% foetal bovine serum (JRH Biosciences 12003), Penicillin/Streptomycin solution diluted 1:100 (Sigma P7539), and 2 mM L-glumtamine (Sigma G7513), and allowed to adhere overnight at 37° C. in 5% CO2. Compounds are then added to the cell media in 2-fold serial dilutions from a top final concentration of 10 μM as a full matrix of concentrations in a final cell volume of 200 μl, and the cells are then incubated at 37° C. in 5% CO2. After 96 h, 40 μl of MTS reagent (Promega G358a) is added to each well and the cells are incubated for lh at 37° C. in 5% CO2. Finally, absorbance is measured at 490 nm using a SpectraMax Plus 384 reader (Molecular Devices) and IC50 values can be calculated.

In another assay the target is T2, full-length ATR (Homo sapiens, UniProt Q13535).
T2 construct: Assays were carried out at 25° C. in the presence of 5 nM full-length ATR
Put plainly: ATR inhibition assay, radioactive-phosphate incorporation. The assay is classed as biochemical. The following applies: Ki(app); 5 nM full-length ATR, 10 μM ATP, 800 μM target peptide, 25° C. The method, then:
Compounds were screened for their ability to inhibit ATR kinase using a radioactive-phosphate incorporation assay. Assays were carried out in a mixture of 50 mM Tris/HCl (pH 7.5), 10 mM MgCl2 and 1 mM DTT. Final substrate concentrations were 10 μM [γ-33P]ATP (3 mCi 33P ATP/mmol ATP, Perkin Elmer) and 800 μM target peptide (ASELPASQPQPFSAKKK (SEQ. ID NO: 1)).
Assays were carried out at 25° C. in the presence of 5 nM full-length ATR. An assay stock buffer solution was prepared containing all of the reagents listed above, with the exception of ATP and the test compound of interest. 13.5 μL of the stock solution was placed in a 96 well plate followed by addition of 2 μL of DMSO stock containing serial dilutions of the test compound (typically starting from a final concentration of 15 μM 3-fold serial dilutions) in duplicate (final DMSO concentration 7%). The plate was pre-incubated for 10 minutes at 25° C. and the reaction initiated by addition of 15 μL [γ-33P]ATP (final concentration 10 μM).
The reaction was stopped after […] by the addition of 30 μL 0.1M phosphoric acid containing 2 mM ATP. A multiscreen phosphocellulose filter 96-well plate (Millipore, Cat no. MAPHN0B50) was pretreated with 100 μL 0.2M phosphoric acid prior to the addition of 45 μL of the stopped assay mixture. The plate was washed with 5×200 μL 0.2M phosphoric acid. After drying, 100 μL Optiphase ‘SuperMix’ liquid scintillation cocktail (Perkin Elmer) was added to the well prior to scintillation counting (1450 Microbeta Liquid Scintillation Counter, Wallac).
After removing mean background values for all of the data points, Ki(app) data were calculated from non-linear regression analysis of the initial rate data using the Prism software package (GraphPad Prism version 3.0cx for Macintosh, GraphPad Software, San Diego, Calif., USA).

The test system of assay [2] is HCT116 colorectal cancer cells. Put plainly: Cisplatin sensitization assay, 96 h cell viability (MTS). The class given is cell-based. The note with it: concentration of compound required to reduce the IC50 of Cisplatin alone by at least 3-fold; HCT116, 96 h MTS. As for the experimental part: Compounds can be screened for their ability to sensitize HCT116 colorectal cancer cells to Cisplatin using a 96 h cell viability (MTS) assay. […] Compounds and Cisplatin are then both added simultaneously to the cell media in 2-fold serial dilutions from a top final concentration of 10 μM as a full matrix of concentrations in a final cell volume of 200 μl and the cells are then incubated at 37° C. in 5% CO2. After 96 h, 40 μl of MTS reagent (Promega G358a) is added to each well and the cells are incubated for lh at 37° C. in 5% CO2. Finally, absorbance is measured at 490 nm using a SpectraMax Plus 384 reader (Molecular Devices) and the concentration of compound required to reduce the IC50 of Cisplatin alone by at least 3-fold (to 1 decimal place) can be reported.

In general, IC50 refers to the concentration at which inhibition is half-maximal.

T1 sequence (Q13535 whole entry): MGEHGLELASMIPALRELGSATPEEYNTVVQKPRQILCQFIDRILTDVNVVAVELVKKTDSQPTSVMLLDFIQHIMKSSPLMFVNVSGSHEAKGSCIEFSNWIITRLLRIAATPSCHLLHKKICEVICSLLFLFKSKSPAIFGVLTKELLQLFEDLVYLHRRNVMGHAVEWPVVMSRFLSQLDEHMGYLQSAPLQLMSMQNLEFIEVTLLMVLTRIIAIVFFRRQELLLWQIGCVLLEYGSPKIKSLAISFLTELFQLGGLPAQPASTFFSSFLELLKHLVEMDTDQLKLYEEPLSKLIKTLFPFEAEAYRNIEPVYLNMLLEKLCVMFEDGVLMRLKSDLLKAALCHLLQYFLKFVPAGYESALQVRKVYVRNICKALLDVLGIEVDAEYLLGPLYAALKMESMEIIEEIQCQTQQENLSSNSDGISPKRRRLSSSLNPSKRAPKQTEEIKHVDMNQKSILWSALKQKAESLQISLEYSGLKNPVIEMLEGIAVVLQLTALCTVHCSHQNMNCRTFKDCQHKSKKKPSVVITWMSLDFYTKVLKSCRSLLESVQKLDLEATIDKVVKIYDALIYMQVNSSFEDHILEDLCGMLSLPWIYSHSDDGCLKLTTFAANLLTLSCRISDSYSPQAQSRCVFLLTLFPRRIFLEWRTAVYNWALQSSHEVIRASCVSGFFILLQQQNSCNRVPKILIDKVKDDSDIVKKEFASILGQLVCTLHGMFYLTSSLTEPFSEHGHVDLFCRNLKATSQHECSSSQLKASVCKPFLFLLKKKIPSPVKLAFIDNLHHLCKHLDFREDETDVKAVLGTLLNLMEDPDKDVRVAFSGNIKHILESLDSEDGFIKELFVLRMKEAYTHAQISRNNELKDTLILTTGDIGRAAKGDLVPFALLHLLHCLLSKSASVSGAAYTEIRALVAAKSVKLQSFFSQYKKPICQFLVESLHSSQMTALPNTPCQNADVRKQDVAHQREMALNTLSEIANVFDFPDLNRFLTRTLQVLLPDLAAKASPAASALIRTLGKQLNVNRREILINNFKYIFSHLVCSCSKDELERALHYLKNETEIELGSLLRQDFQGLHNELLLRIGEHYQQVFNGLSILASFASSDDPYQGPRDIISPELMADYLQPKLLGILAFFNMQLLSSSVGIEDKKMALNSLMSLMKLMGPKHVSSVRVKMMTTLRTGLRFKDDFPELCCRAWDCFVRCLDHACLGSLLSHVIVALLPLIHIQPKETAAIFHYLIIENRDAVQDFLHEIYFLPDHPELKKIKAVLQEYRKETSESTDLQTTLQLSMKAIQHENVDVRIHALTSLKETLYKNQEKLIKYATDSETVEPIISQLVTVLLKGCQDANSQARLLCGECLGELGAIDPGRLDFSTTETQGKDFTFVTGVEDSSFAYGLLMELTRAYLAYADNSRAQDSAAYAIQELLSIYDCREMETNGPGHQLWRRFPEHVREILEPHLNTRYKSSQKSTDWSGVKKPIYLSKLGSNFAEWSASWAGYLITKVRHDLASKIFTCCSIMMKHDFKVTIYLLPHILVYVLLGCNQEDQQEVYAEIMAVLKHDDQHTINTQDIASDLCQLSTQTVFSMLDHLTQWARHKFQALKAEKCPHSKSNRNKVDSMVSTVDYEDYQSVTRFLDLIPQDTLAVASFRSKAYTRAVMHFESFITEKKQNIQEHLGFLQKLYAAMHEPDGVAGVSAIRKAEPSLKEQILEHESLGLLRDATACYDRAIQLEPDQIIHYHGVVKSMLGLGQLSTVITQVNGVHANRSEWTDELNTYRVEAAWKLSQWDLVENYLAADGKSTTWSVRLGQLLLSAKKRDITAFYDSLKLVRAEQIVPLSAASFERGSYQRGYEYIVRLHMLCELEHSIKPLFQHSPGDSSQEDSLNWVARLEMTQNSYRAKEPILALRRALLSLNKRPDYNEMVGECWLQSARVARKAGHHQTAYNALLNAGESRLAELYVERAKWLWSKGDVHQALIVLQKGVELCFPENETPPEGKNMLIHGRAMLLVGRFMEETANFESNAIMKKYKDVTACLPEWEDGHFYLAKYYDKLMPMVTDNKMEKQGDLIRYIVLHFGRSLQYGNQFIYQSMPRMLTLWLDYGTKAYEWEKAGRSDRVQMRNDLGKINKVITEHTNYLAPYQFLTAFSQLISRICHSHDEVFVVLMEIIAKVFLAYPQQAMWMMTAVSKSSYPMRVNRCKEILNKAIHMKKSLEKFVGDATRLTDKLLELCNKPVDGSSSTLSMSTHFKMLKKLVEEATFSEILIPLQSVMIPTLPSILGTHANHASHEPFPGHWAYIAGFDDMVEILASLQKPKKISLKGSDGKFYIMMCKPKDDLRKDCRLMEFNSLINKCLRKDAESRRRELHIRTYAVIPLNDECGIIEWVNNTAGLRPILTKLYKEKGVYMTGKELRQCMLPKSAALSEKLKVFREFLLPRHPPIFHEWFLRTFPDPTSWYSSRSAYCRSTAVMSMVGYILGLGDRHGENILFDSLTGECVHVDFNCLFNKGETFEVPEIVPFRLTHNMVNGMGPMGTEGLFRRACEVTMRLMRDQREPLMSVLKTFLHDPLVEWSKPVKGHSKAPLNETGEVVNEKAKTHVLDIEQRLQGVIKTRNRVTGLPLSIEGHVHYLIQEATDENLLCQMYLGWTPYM
T1 sequence (Q8WXE1 whole entry partner): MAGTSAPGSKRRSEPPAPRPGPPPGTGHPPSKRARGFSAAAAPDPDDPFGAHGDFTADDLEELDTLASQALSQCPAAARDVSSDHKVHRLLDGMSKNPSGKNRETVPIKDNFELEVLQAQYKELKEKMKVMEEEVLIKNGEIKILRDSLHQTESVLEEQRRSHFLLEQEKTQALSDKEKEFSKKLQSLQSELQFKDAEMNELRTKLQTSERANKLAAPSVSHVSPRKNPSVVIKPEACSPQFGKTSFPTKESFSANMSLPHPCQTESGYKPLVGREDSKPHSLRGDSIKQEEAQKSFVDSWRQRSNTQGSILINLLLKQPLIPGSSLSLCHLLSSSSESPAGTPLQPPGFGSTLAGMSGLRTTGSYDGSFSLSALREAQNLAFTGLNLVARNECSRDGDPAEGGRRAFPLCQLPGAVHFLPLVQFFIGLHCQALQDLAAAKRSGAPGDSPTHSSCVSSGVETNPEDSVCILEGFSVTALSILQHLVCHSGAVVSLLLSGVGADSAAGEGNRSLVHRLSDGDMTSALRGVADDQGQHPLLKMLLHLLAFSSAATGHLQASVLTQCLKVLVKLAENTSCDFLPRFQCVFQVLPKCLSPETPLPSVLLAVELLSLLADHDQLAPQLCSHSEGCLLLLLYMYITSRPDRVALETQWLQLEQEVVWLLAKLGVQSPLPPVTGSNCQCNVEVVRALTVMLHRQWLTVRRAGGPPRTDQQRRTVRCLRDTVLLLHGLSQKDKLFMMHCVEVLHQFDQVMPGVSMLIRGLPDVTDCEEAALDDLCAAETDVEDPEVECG
T2 sequence (Q13535 whole entry): as the sequence (Q13535 whole entry) above

Consider `CC(C)S(=O)(=O)c1ccc(-c2cnc(N)c(-c3cc(-c4ccc(NCC5CCCCN5)cc4)no3)n2)cc1` (stereo not drawn) [Compound I-1, 5-(4-isopropylsulfonylphenyl)-3-[3-[4-(2-piperidylmethylamino)phenyl]isoxazol-5-yl]pyrazin-2-amine], for which the IC50 on intracellular ATR amounted to 62 nM; in assay [1] it was 210 nM. Further, on full-length ATR, the Ki was determined as 0.635 nM. In assay [2], the Cisplatin sensitization is listed as 156 nM.

With `CC(C)S(=O)(=O)c1ccc(-c2cnc(N)c(-c3cc(-c4ccc(NCC5CCN5)cc4)no3)n2)cc1` (stereo not drawn) [Compound I-2, 3-[3-[4-(azetidin-2-ylmethylamino)phenyl]isoxazol-5-yl]-5-(4-isopropylsulfonylphenyl)pyrazin-2-amine], the figures for the half-maximal inhibitory concentration (IC50) (at intracellular ATR; in assay [1]) were 40 nM and 140 nM, respectively. On full-length ATR, the Ki was found to be 0.6 nM. In addition, the Cisplatin sensitization in assay [2] came out at 78 nM.

On to `CC(C)S(=O)(=O)c1ccc(-c2cnc(N)c(-c3cc(-c4ccc(NC[C@@H]5CCCN5)cc4)no3)n2)cc1` [Compound I-3, (S)-5-(4-(isopropylsulfonyl)phenyl)-3-(3-(4-((pyrrolidin-2-ylmethyl)amino)phenyl)isoxazol-5-yl)pyrazin-2-amine], for which the IC50 against intracellular ATR turned out to be 14 nM; in assay [1], 83 nM. In addition, the Ki at full-length ATR stood at 0.49 nM. Besides, in assay [2], the Cisplatin sensitization worked out at 20 nM.

With `CC(C)S(=O)(=O)c1ccc(-c2cnc(N)c(-c3cc(-c4ccc(NC[C@H]5CCCN5)cc4)no3)n2)cc1` [Compound I-4, (R)-5-(4-(isopropylsulfonyl)phenyl)-3-(3-(4-((pyrrolidin-2-ylmethyl)amino)phenyl)isoxazol-5-yl)pyrazin-2-amine], the half-inhibitory concentration (IC50) on intracellular ATR turned out to be 13 nM; in assay [1], 52 nM. Moreover, the Ki on full-length ATR was 0.35 nM. Also, the Cisplatin sensitization in assay [2] came out at 39 nM.

In the case of `CC(C)S(=O)(=O)c1ccc(-c2cnc(N)c(-c3cc(-c4ccc(NCC5CCCN5)cc4)no3)n2)cc1` (stereo not drawn) [Compound I-5, 5-(4-isopropylsulfonylphenyl)-3-[3-[4-(pyrrolidin-2-ylmethylamino)phenyl]isoxazol-5-yl]pyrazin-2-amine], the IC50 was less than 10 nM against intracellular ATR and 26 nM in assay [1]. Further, the Ki on full-length ATR was less than 0.1 nM. Further, the Cisplatin sensitization in assay [2] was found to be 20 nM.

With `CC(C)S(=O)(=O)c1ccc(-c2cnc(N)c(-c3cc(-c4ccc(NCCN(C)C)cc4)no3)n2)cc1` [Compound I-6, N-(4-(5-(3-amino-6-(4-(isopropylsulfonyl)phenyl)pyrazin-2-yl)isoxazol-3-yl)phenyl)-N,N-dimethylethane-1,2-diamine], the IC50 on intracellular ATR is 260 nM; in assay [1] it was 720 nM. On full-length ATR, the Ki was found to be 0.405 nM. Also, the Cisplatin sensitization in assay [2] was 78 nM.
